Results reported in patent EP2371816A1, “Aminocyclohexenone, their preparation and use as medicament against oxidative stress” (ABIOGEN PHARMA S.p.A., priority 2010, dated 2011).

Columns and labels:
[1] = system: BAEC cells (bovine aortic endothelial); assay: In vitro inhibition of CHP-induced oxidative stress (DCF fluorescence) in BAEC cells; type: cell-based; settings: 500 µM CHP, compound 4, 20, 100 and 500 µM, 30 minutes at 37 °C, range given for both cell lines together
Protocol: (§1) The method used was essentially the one reported by Rüweler M. et al. ("Inhibition of peroxide-induced radical generation by plant polyphenols in C6 astroglioma cells" (2008) Toxicol in vitro 22, 1377-81), with a few minor modifications.
(§2) The cells were seeded in phenol-red free DMEM (Sigma Aldrich) into 96-well plates with 5% FBS and 20 mM HEPES at a density of 40,000 cells/well. After 48 hours, the medium was substituted by HBSS (Hanks' Balanced Salt Solution, Sigma) containing 10 µM of dihydro-2',7'-dichlorofluorescein diacetate (H2DCF-DA, Sigma Aldrich) and incubated in darkness for 30 minutes at 37 °C, in order to load the cells with fluorescent dye. H2DCF-DA was hydrolyzed enzymatically by the intracellular esterases to form non-fluorescent H2DCF, which was then rapidly oxidized to form 2',7'-dichlorofluorescein (DCF) being highly fluorescent in the presence of reactive species (RS). The intensity of DCF fluorescence is directly proportional to the amount of RS formed.
(§3) After carrying out two washes, the cells were exposed to 500 µM of CHP and various concentrations (4, 20, 100 and 500 µM) of the compounds of the invention for 30 minutes at 37 °C. Fluorescence was then measured, after cell washing, by a microplate reader at an excitation wavelength of 485 nm and an emission wavelength of 535 nm.
(§4) Six wells per plate per concentration of test composition (compound + CHP) and per control (HBSS without CHP) were measured and 12 wells were used as reference for CHP-induced stress. In addition, each 96-well plate contained 6 wells that received the highest concentration of the tested compounds without CHP, to investigate whether the compounds of the invention alone were able to induce cellular radical formation.
(§5) When using this assay, it should be borne in mind that DCF fluorescence is a generalized indicator of oxidative stress rather than of any particular reactive species, i.e. it is not a direct assay for H2O2 or other reactive species (Halliwell B, Whiteman M. (2004) "Measuring reactive species and oxidative damage in vivo and in cell culture: how should you do it and what do the results mean?" Br. J. Pharmacol. 142 231-255). Therefore, when an increase in DCF fluorescence induced by exposure of cells to CHP was measured, as was undertaken in these assays, it was not possible to deduce which reactive species was responsible. Inhibition of CHP-induced fluorescence was evaluated by means of different concentrations of the compounds of the invention and comparative compounds such as Trolox and edaravone.

C6 cells (rat glioma) = assay: In vitro inhibition of CHP-induced oxidative stress (DCF fluorescence) in C6 cells; type: cell-based; settings: 500 µM CHP, compound 4, 20, 100 and 500 µM, 30 minutes at 37 °C, range given for both cell lines together
Protocol: as §1, §2, §3, §4, §5

[2] = TEAC method (Trolox Equivalent Antioxidant Capacity Assay); settings: ratio of gradient to gradient of reference (trolox); 37 °C, 650 nm, pH 4.5
From the text: This assay is used to measure the total antioxidant activity of pure substances, biological fluids and plant compounds and is based on the reaction of antioxidants with the cation radical ABTS^˙+ (2,2'-azinobis(3-ethylbenzothiazolin-6-sulphonate)). This cation radical is metastable and has to be generated just before the experiment by reacting ABTS with hydrogen peroxide in the presence of HRP.
This radical can be reduced, with consequent loss of absorbance, by an antioxidant whose scavenging capacity can be measured spectrophotometrically at 650 nm. The test is carried out at 37 °C and the results are obtained from a comparison with Trolox (a synthetic antioxidant and hydrophilic analogue of vitamin E).
The ABTS solution S1 was prepared as follows: • 20 mg of ABTS were added to 50 mM of citric acid buffer (40 ml) at pH=4.5 and to the resulting solution there was added an aqueous solution of HRP (4.4 mg, 400 µl) and an aqueous solution of H2O2 (10 µl of a 30% solution diluted with 16.3 ml of water).
For each of the compounds (2), (6) and (7), as synthesized above, there was prepared a 600 µM solution in water, methanol or DMSO according to its solubility, as well as a Trolox solution as reference.
Each solution was diluted to produce 6 solutions each at a concentration between 25 µM and 300 µM. From each of the diluted and divided solutions, there were withdrawn 20 µl to which 200 µl of solution S1 were then added.
The decrease in absorbance of each solution thus obtained was monitored at 650 nm until a stable value was reached (about 90 minutes).
For each set of 6 solutions and for the reference trolox solution, the absorption was given in graph form as a function of the amount of compound (nmol) in the solution. The gradient of the straight line obtained by linear interpolation was determined according to the least squares method. The TEAC value of each compound of the invention is given in the table below and is expressed as the ratio between the gradient of the resulting straight line and the gradient of the reference (trolox) straight line.

[3] = system: cerebral oxidative stress induced in mice by doxorubicin; assay: In vivo assay of cerebral oxidative stress induced in mice by doxorubicin
Protocol: The assay was carried out on compounds (1) and (3)-(6) and on edaravone (E) as comparative compound.
10 mice were used for each treatment group. For each compound 50 mg/kg were administered intraperitoneally (IP) for three consecutive days (day 0, 1 and 2); half the animals (5) also received IP 16.7 mg/kg of doxorubicin immediately after the first treatment (day 0). On the day after the last administration (day 3) the animals were killed by neck dislocation and the brains were removed, weighed and frozen in liquid nitrogen.
For the analyses of oxidative stress, 100 mg/ml of brain homogenate was prepared in Hebe buffer (pH 7.4 EDTA/HEPES^(**)) containing a mixture of enzyme inhibitors (Leupeptin, Pepstatin, Aprotinin, BHA). • ^(*) Hypotonic Extraction Buffer • ^(**) 4-2-hydroxyethyl-1-piperazinyl-ethanesulphonic acid
The evaluation parameters were: • BrW/BWi: ratio between final brain weight and initial body weight (day 0); • Prot. Hmg: total proteins in the homogenate (BCA method, i.e. bicinchoninic acid); • Prot. Ox: oxidized proteins in the Hmg by means of a colorimetric method using […] (DNPH); • GSH: reduced glutathione in the supernatant (sn) of the Hmg, obtained after precipitation with metaphosphoric acid (MPA), by means of a colorimetric method using […] (DTNB); • CAT: catalase in the Hmg by a colorimetric method using potassium dichromate; • SOD: superoxide dismutase by a colorimetric method using SOD Reagent (xanthine, EDTA, nitroblue tetrazole, Na2CO3, BSA, i.e. bovine serum albumin); • GST: glutathione S-transferase in the supernatant by a colorimetric method using chlorodinitrobenzene (CDNB) and GSH; and • GPx: glutathione peroxidase in the supernatant after addition of GSH and tert butyl hydroperoxide (t-BuOOH), heating and precipitation with MPA; followed by GSH method with DTNB.
All the parameters, with the exclusion of Brain/BWi and Prot. Hmg, were normalized for total Hmg proteins (Table 3). The D value standard deviations and the % incidence relative to V are given in italics.
The mean % effect, on all the parameters simultaneously, of the triple treatment in the healthy animals, as mean percentage variation relative to the vehicle (table 4). This value is useful as an approximate safety index of the oxidative state of the brain, i.e. the capacity of the compounds of the invention not to alter cerebral homeostasis in healthy animals.
The effect of the tested compounds on the "oxidized" animals was given as % inhibition relative to the percentage variation due to doxorubicin alone. The effect of the compounds on the oxidized animals can be expressed both as a function of the values of the vehicle (healthy, vehicle only) and as a function of the value of its own control (healthy, compound only): • Vehicle: percentage [(Compound+D)/V]x100/[(V+D)/V]x100 • Its own: percentage [(Compound+D)/Compound]x100/[(V+D)/V]x100

[4] = % variation relative to the vehicle, healthy animals, 50 mg/kg IP x3 days (D = doxorubicin alone)

| Brain/BWi [3, 4] | CAT/pr [3, 4] | GPX/pr [3, 4] | GSH/pr [3, 4] | GST/pr [3, 4] | Prot. Hmg [3, 4] | Prot. Ox/pr [3, 4] | SOD/pr [3, 4] | Structure (SMILES) | Inhibition of CHP-induced fluorescence [1] | Inhibition of CHP-induced fluorescence (C6 cells (rat glioma)) | TEAC [2] | overall inhibitory effect on the doxorubicin-induced oxidation ([3]; both with respect to the Vehicle and Its own) | Mean % variation relative to the vehicle ([3]; healthy animals, 50 mg/kg IP days 0, 1 and 2, mean over all parameters, approximate safety index (D = doxorubicin alone), 50 mg/kg) |
| --- | --- | --- | --- | --- | --- | --- | --- | --- | --- | --- | --- | --- | --- |
|  |  |  |  |  |  |  |  | Cc1c(C)c2c(c(C)c1O)CCC(C)(C(=O)O)O2 (stereo not drawn) [Trolox, reference compound] | 10-50% | 10-50% |  |  |  |
| 2.7% | -5.0% | -6.7% | -5.5% | -3.1% | 3.7% | -2.3% | -2.2% | CC1=NN(c2ccccc2)C(=O)C1 [edaravone, reference compound] | 10-50% | 10-50% | 0.9 | about 75% | -2.7% |
